From publication PMC12693135, “Ocular Toxicity and Mechanistic Investigation for Berberine and Its Metabolite Berberrubine on Zebrafish” (Molecules, 2025)

Key:
[1] = Zebrafish embryonic developmental toxicity (mortality, LC50); design: species or system zebrafish (Danio rerio); settings: wild-type AB, in vivo, exposure from 6 hpf, mortality at 5 dpf, read-out: LC50 (half-lethal concentration)
Experimental: First, the half-lethal concentration (LC50) values of berberine (BBR) and berberrubine (M1) in zebrafish were calculated. Wild-type AB strain zebrafish embryos staged at 6 h post-fertilization (hpf), corresponding to the 50% epiboly stage, were exposed to BBR or M1 at different concentrations. Mortality was recorded via stereomicroscopy at 5 days post-fertilization (5 dpf).
Embryos at 6 hpf (50% epiboly stage) were grouped and exposed to incubation solutions of berberine (BBR) at concentrations of 20, 50, 100, 200, and 400 µM, or M1 at concentrations of 20, 50, 100, 200, 400, and 625 µM, until 5 dpf. The control group was treated with 0.05% DMSO in saline. All experiments were performed in three biological replicates; unless otherwise specified, each replicate included 30 larvae per treatment, resulting in a total of 90 larvae per treatment.
Wild-typed AB strain zebrafish embryos at the 6 h post-fertilization stage (6 hpf) were grouped (30 fishes per group), and BBR at the concentrations of 20, 50, 100 and 200 µM or M1 at the concentrations of 20, 50, 100, 200, 400 and 625 µM were administered by microinjection, taking 0.05% DMSO in saline as the control. The mortality was recorded everyday by SZX2 stereomicroscopy (Olympus, Hachioji-shi, Japan) until 5 dpf. Dead embryos were recorded and discarded every 24 h. […]

[2] = system: wild-type AB strain zebrafish ocular cells; assay: Fluorescence microscopy for ocular cell apoptosis (acridine orange); assay type: in vivo, zebrafish (Danio rerio); settings: for fluorescence intensity of apoptotic ocular cells (ratio to eye area): control 0.19
Experimental: To investigate the underlying mechanism of ocular toxicity, we evaluated the proapoptotic effects of BBR and M1 on wild-type AB strain zebrafish ocular cells. Zebrafish embryos at 6 hpf were water-soluble administration with BBR (25 or 50 μM) or M1 (100 or 200 μM), and the fluorescence intensity of apoptotic ocular cells was measured at 5 dpf using confocal fluorescence microscopy (Figure 4A). […] Specifically, the fluorescence intensity (a marker of apoptotic cell abundance) was increased from 0.19 to 0.28 and 0.32 upon the treatments of 25 μM BBR and 50 μM BBR, respectively.
A total of 30 wild-type AB strain zebrafish at 6 hpf were treated with BBR at 25 or 50 μM, M1 at 100 or 200 μM, or 0.05% DMSO (control), respectively, […], with 30 larvae per treatment and three biological replicates (total 90 larvae per group). The zebrafish larvae were then stained with acridine orange. After staining, 10 larvae were randomly selected from each experimental group and imaged using a motorized-focus continuous-zoom fluorescence microscope AZ100 (Nikon, Shinagawa-ku, Japan) with the magnification of 10–40× and exposure time of 200–500 ms. The fluorescence intensity of ocular apoptotic cells and mitochondria in zebrafish larvae was measured and analyzed using NIS-Elements 6.10 (Nikon Imaging Software, Nikon, Japan).

[3] = system: mitochondrial complex I (NADH dehydrogenase); assay: Mitochondrial complex I activity assay in treated zebrafish larvae; assay type: in vivo, zebrafish (Danio rerio); settings: BBR 25 or 50 μM, M1 100 or 200 μM, 5 dpf
Experimental: Wild-type AB strain zebrafish (6 hpf) were treated with BBR (25 or 50 μM), M1 (100 or 200 μM), or 0.05% DMSO (control) until 5 dpf, with 9 larvae per treatment and three biological replicates ([…]). Three zebrafish larvae were harvested per group (3 samples per group) and homogenized on ice following the protocol of the Mitochondrial Respiratory Chain Complex I Activity Assay Kit (Solabor, Beijing, China). Briefly, cell homogenates were centrifuged at 600× g for 5 min at 4 °C, and the supernatants were transferred to new microcentrifuge tubes. The samples were then centrifuged again at 11,000× g for 10 min at 4 °C; the precipitates (containing mitochondria) were used for the complex I activity assay. These precipitates were subjected to ultrasonication in the appropriate reaction buffer, and reactions were set up according to the protocol. After mixing, the OD340 values at time 0 (OD1) and at 2 min (OD2) were recorded using a Synergy H1 multifunctional microplate reader (Biotek, Winooski, VT, USA). The ΔOD value was calculated by subtracting OD2 from OD1. Mitochondrial complex I activity was calculated according to the formula provided in the protocol and expressed as units per mg of sample protein.

[4] = system: wild-type AB strain zebrafish; assay: qPCR gene expression in zebrafish larvae; assay type: in vivo, zebrafish (Danio rerio); settings: BBR 25 or 50 μM, M1 100 or 200 μM
Experimental: Wild-type AB strain zebrafish (6 hpf) were treated with BBR (25 or 50 μM), M1 (100 or 200 μM), or 0.05% DMSO (control) until 5 dpf, with 30 larvae per treatment and three biological replicates (total 90 larvae per group). A total of 30 larvae were pooled per sample (3 samples per group), collected, and homogenized. Total RNA was isolated using a commercial RNA extraction kit following the manufacturer’s protocol. The concentration and purity of the extracted RNA were determined by measuring the absorbance at 260 nm and 280 nm using a NanoDrop 2000 ultraviolet-visible spectrophotometer (Thermo, Waltham, MA, USA). A total of 1 µg of RNA from each sample was reverse-transcribed into complementary DNA (cDNA) using a PrimeScript RT reagent kit (Takara Bio Inc., Dalian, China). The reverse transcription reaction was performed in a T100 Thermal Cycler (BIO-RAD, Singapore) under the following conditions: 37 °C for 15 min, followed by 85 °C for 5 s.
The qPCR reactions were carried out to quantify the relative expression levels of target genes, including photoreceptor-related genes (rho and opn1sw), mitochondrial dynamics genes (mfn2 and drp1), autophagy markers (lc3b and p62), apoptosis-related genes (baxa, bcl2a, caspase9, caspase3, and caspase7), and inflammation-related genes (il1b and il6), on a CFX Connect quantitative real-time PCR instrument (BIO-RAD, Singapore). The experiment was performed according to the manufacturer’s instruction. β-actin served as the internal reference, and the experiment was repeated in triplicate.

[5] = system: rabbit corneal epithelium; design: method as in PMID 32074824; settings: topical application of 1.5 mg/mL; cited from earlier work
[6] = system: human lens epithelial cells (HLE-B3); design: method as in PMID 17645667; settings: 25 μM under UVA exposure; cited from earlier work

| SMILES | LC50 [1] | fluorescence intensity of apoptotic ocular cells (ratio to eye area) ([2]; 25 μM) | fluorescence intensity of apoptotic ocular cells (ratio to eye area) ([2]; 50 μM) | mitochondrial complex I activity [3] | bcl2a expression [4] | expression of baxa, caspase9, caspase3 and caspase7 [4] | expression of drp1 [4] | expression of lc3b [4] | expression of mfn2 [4] | expression of rho and opn1sw genes [4] | p62 levels [4] | transcription of il1β and il6 [4] | corneal epithelial repair [5] | phototoxic damage to cells [6] | apoptosis in ocular cells ([2]; 200 μM compared with 100 μM) |
| --- | --- | --- | --- | --- | --- | --- | --- | --- | --- | --- | --- | --- | --- | --- | --- |
| COc1ccc2cc3[n+](cc2c1OC)CCc1cc2c(cc1-3)OCO2 [BBR, berberine] | 167 µM | 0.28 | 0.32 | dose-dependently suppressed | dose-dependently reduced bcl2a expression | increasing the expression of baxa, caspase9, caspase3 and caspase7 | increasing that of drp1 in a concentration-dependent manner | decreasing the expression of lc3b | decreased the expression of mfn2 dose-dependently | reduced the expression of these two genes in a dose-dependent manner | elevation in p62 levels | promoted the transcription of proinflammatory cytokine genes il1β and il6 | delayed corneal epithelial repair | severe damage | – |
| COc1ccc2cc3[n+](cc2c1O)CCc1cc2c(cc1-3)OCO2 [M1, berberrubine] | 558 µM | – | – | marked, dose-dependent decrease | dose-dependently reduced bcl2a expression | increasing the expression of baxa, caspase9, caspase3 and caspase7 | increasing that of drp1 in a concentration-dependent manner | decreasing the expression of lc3b | decreased the expression of mfn2 dose-dependently | reduced the expression of these two genes in a dose-dependent manner | elevation in p62 levels | promoted the transcription of proinflammatory cytokine genes il1β and il6 | – | – | significant increase in apoptosis |
